According to patent publication EP1561465A2, “Methods of use of fluoroquinolone compounds against bacteria” (LG Life Sciences, Ltd., priority 1999, dated 2001):
Values after ≈ are worked out from the molar mass of the structure shown.

Columns and labels:
Proteus mirabilis = assay: MIC by agar dilution (NCCLS), 322 nosocomial Gram negative isolates, Athens 1998; assay type: cell-based; conditions: Proteus mirabilis; n = 57 isolates
P. aeruginosa = assay: MIC by two-fold serial agar dilution, quinolone-resistant strains; assay type: cell-based; conditions: Pseudomonas aeruginosa
Campylobacter jejuni = assay: MIC by agar dilution (NCCLS M7-A4), 288 enteropathogenic isolates, gemifloxacin and 15 other antimicrobials; conditions: Campylobacter jejuni N= 91
Salmonella spp. = assay: as above; assay type: cell-based; conditions: Salmonella spp. N= 106
Klebsiella pneumoniae [1] = assay: MIC by agar dilution (NCCLS), 322 nosocomial Gram negative isolates, Athens 1998; assay type: cell-based; conditions: n = 56 isolates
Klebsiella pneumoniae [2] = assay: MIC by NCCLS reference broth microdilution, 450 respiratory tract pathogens; assay type: cell-based
Haemophilus influenzae [3] = assay: as above; assay type: cell-based; conditions: for MIC / MIC50: Haemophilus influenzae
Haemophilus influenzae [4] = assay: MIC by two-fold serial agar dilution, Sensitivity Disk agar-N (Kitasato isolates); assay type: cell-based; conditions: Haemophilus influenzae (24)
Streptococcus pneumoniae [5] = assay: as above; assay type: cell-based; conditions: Streptococcus pneumoniae; for MIC: 18 h, read-out: MIC Range
Moraxella catarrhalis [6] = assay: as above; assay type: cell-based; conditions: Moraxella catarrhalis (22)
Aeromonas spp. = assay: MIC by agar dilution (NCCLS M7-A4), 288 enteropathogenic isolates, gemifloxacin and 15 other antimicrobials; assay type: cell-based; conditions: Aeromonas spp. N= 16
Acinetobacter spp. = assay: MIC by agar dilution (NCCLS), 322 nosocomial Gram negative isolates, Athens 1998; assay type: cell-based; conditions: Acinetobacter; n = 38 strains
Staphylococcus aureus = assay: MIC by NCCLS reference broth microdilution, 450 respiratory tract pathogens; assay type: cell-based
Streptococcus pyogenes = assay: as above; assay type: cell-based; conditions: Streptococcus pyogenes
Moraxella catarrhalis [7] = assay: as above; assay type: cell-based
Pseudomonas aeruginosa = assay: MIC by agar dilution (NCCLS), 322 nosocomial Gram negative isolates, Athens 1998; assay type: cell-based; conditions: n = 57 isolates
E. coli = assay: microbe, parasite or virus in culture; assay type: cell-based; conditions: Escherichia coli
Streptococcus pneumoniae [8] = assay: MIC by NCCLS reference broth microdilution, 450 respiratory tract pathogens; assay type: cell-based; conditions: Streptococcus pneumoniae
Enterobacter spp. = assay: MIC by agar dilution (NCCLS), 322 nosocomial Gram negative isolates, Athens 1998; assay type: cell-based; conditions: Enterobacter; n = 57 isolates; read-out: MIC50
Escherichia coli = assay: as above; assay type: cell-based; conditions: n = 57 isolates
Yersinia enterocolitica = assay: MIC by agar dilution (NCCLS M7-A4), 288 enteropathogenic isolates, gemifloxacin and 15 other antimicrobials; assay type: cell-based; conditions: 24 h; Yersinia enterocolitica N= 22; read-out: MIC (mg/L) Range
[9] = Klebsiella pneumoniae, Klebsiella pneumoniae (n = 50)
[10] = Haemophilus influenzae (n = 100)
[11] = Streptococcus pyogenes (n = 100)
[12] = erythromycin resistant I phenotype [MLSB] (n = 20)
[13] = erythromycin resistant M phenotype (n = 20)

## O=C(O)c1cn(C2CC2)c2cc(N3CCNCC3)c(F)cc2c1=O [Ciprofloxacin, ciprofloxacin]
Proteus mirabilis
  MIC50: 0.06 µg/mL (≈ 0.181 µM)
P. aeruginosa
  MIC: 1 µg/mL (≈ 3.02 µM)
Campylobacter jejuni
  MIC (mg/L) Range: 0.06 to 128 mg/L
Salmonella spp.
  MIC (mg/L) Range: ≤0.015 to 1 mg/L
Klebsiella pneumoniae [1]; Klebsiella pneumoniae
  MIC50: ≤ 0.03 µg/mL
  MIC90: 0.5 µg/mL (≈ 1.51 µM)
Klebsiella pneumoniae [1]
  MIC Range: ≤0.03 to 8 µg/mL
Klebsiella pneumoniae [2]; Klebsiella pneumoniae (n = 50)
  MIC Range: ≤0.0075 to 1 µg/mL
Klebsiella pneumoniae [2]; [9]
  MIC50: 0.12 µg/mL (≈ 0.362 µM)
  MIC90: 0.5 µg/mL (≈ 1.51 µM)
Klebsiella pneumoniae [2]; Klebsiella pneumoniae, extended spectrum β-lactamase negative (n = 30)
  MIC90: 0.03 µg/mL (≈ 0.0905 µM)
Klebsiella pneumoniae [2]; Klebsiella pneumoniae, extended spectrum β-lactamase positive (n = 20)
  MIC90: 0.5 µg/mL (≈ 1.51 µM)
Klebsiella pneumoniae [2]; extended spectrum β-lactamase negative (n = 30)
  MIC Range: ≤0.0075 to 0.12 µg/mL
Klebsiella pneumoniae [2]; extended spectrum β-lactamase positive (n = 20)
  MIC Range: 0.015 to 0.5 µg/mL
Haemophilus influenzae [3]; [10]
  MIC90: 0.015 µg/mL (≈ 0.0453 µM)
  MIC: 0.0075 to 0.5 µg/mL (≈ 0.0226 to 1.51 µM)
  MIC50: ≤ 0.00075 µg/mL
Haemophilus influenzae [3]; β-lactamase negative (n = 80)
  MIC: 0.0075 to 0.5 µg/mL (≈ 0.0226 to 1.51 µM)
  MIC50: ≤ 0.0075 µg/mL
Haemophilus influenzae [3]; β-lactamase positive (n = 20)
  MIC: 0.0075 to 0.015 µg/mL (≈ 0.0226 to 0.0453 µM)
  MIC50: ≤ 0.0075 µg/mL
Haemophilus influenzae [4]
  MIC Range: 0.008 to 0.031 µg/mL
Streptococcus pneumoniae [5]; Ciprofloxacin-resistant (21)
  MIC: 8 to 128 µg/mL (≈ 24.1 to 386 µM)
Streptococcus pneumoniae [5]; Ciprofloxacin-susceptible (94)
  MIC: 0.25 to 4 µg/mL (≈ 0.754 to 12.1 µM)
Streptococcus pneumoniae [5]; Erythromycin-resistant (37)
  MIC: 0.5 to 64 µg/mL (≈ 1.51 to 193 µM)
Streptococcus pneumoniae [5]; Minocycline-resistant (37)
  MIC: 0.25 to 64 µg/mL (≈ 0.754 to 193 µM)
Streptococcus pneumoniae [5]; Penicillin-resistant (19)
  MIC: 0.5 to 8 µg/mL (≈ 1.51 to 24.1 µM)
Streptococcus pneumoniae [5]; Penicillin-resistant (19), read-out: MIC50
  MIC50: 0.5 µg/mL (≈ 1.51 µM)
Moraxella catarrhalis [6]
  MIC50: 0.031 µg/mL (≈ 0.0936 µM)
  MIC Range: 0.031 to 0.063 µg/mL
Aeromonas spp.
  MIC (mg/L) Range: ≤0.015 to 0.06 mg/L
Acinetobacter spp.
  MIC90: > 64 µg/mL
Staphylococcus aureus; Staphylococcus aureus (n = 50)
  MIC: 0.06 to 4 µg/mL (≈ 0.181 to 12.1 µM)
  MIC50: 2 µg/mL (≈ 6.04 µM)
Staphylococcus aureus; β-lactamase negative (n = 20)
  MIC: 0.06 to 4 µg/mL (≈ 0.181 to 12.1 µM)
  MIC50: 2 µg/mL (≈ 6.04 µM)
Streptococcus pyogenes; [11]
  MIC: 0.12 to 2 µg/mL (≈ 0.362 to 6.04 µM)
  MIC90: 0.5 µg/mL (≈ 1.51 µM)
Streptococcus pyogenes; erythromycin resistant C phenotype [MLSB] (n = 20)
  MIC: 0.25 to 0.5 µg/mL (≈ 0.754 to 1.51 µM)
Streptococcus pyogenes; [12]
  MIC: 0.12 to 2 µg/mL (≈ 0.362 to 6.04 µM)
  MIC90: 0.5 µg/mL (≈ 1.51 µM)
Streptococcus pyogenes; [13]
  MIC: 0.12 to 0.5 µg/mL (≈ 0.362 to 1.51 µM)
  MIC90: 0.5 µg/mL (≈ 1.51 µM)
Streptococcus pyogenes; fully susceptible (n = 20)
  MIC: 0.12 to 2 µg/mL (≈ 0.362 to 6.04 µM)
  MIC90: 0.5 µg/mL (≈ 1.51 µM)
Streptococcus pyogenes; multi-drug resistant (n = 20)
  MIC: 0.25 to 1 µg/mL (≈ 0.754 to 3.02 µM)
  MIC90: 0.5 µg/mL (≈ 1.51 µM)
Moraxella catarrhalis [7]; Moraxella catarrhalis (n = 50)
  MIC: 0.00375 to 0.06 µg/mL (≈ 0.0113 to 0.181 µM)
  MIC50: 0.03 µg/mL (≈ 0.0905 µM)
Moraxella catarrhalis [7]; β-lactamase negative (n = 13)
  MIC: 0.00375 to 0.03 µg/mL (≈ 0.0113 to 0.0905 µM)
  MIC50: 0.015 µg/mL (≈ 0.0453 µM)
Moraxella catarrhalis [7]; β-lactamase positive (n = 37)
  MIC: 0.00375 to 0.06 µg/mL (≈ 0.0113 to 0.181 µM)
  MIC50: 0.03 µg/mL (≈ 0.0905 µM)
Pseudomonas aeruginosa
  MIC50: 0.5 µg/mL (≈ 1.51 µM)
E. coli; E. coli KU1030, mutant type SP
  MIC: 0.063 µg/mL (≈ 0.19 µM)
E. coli; E. coli KU1036, mutant type GB (DNA gyrase B)
  MIC: 0.063 µg/mL (≈ 0.19 µM)
E. coli; E. coli KU1038, mutant type SP
  MIC: 0.063 µg/mL (≈ 0.19 µM)
E. coli; E. coli KU1042, mutant type SP
  MIC: 0.063 µg/mL (≈ 0.19 µM)
Streptococcus pneumoniae [8]; Streptococcus pneumoniae (n = 100)
  MIC: 0.06 to 4 µg/mL (≈ 0.181 to 12.1 µM)
Streptococcus pneumoniae [8]; multi-drug resistant (n = 16)
  MIC: 0.5 to 4 µg/mL (≈ 1.51 to 12.1 µM)
Streptococcus pneumoniae [8]; penicillin intermediate (n = 16)
  MIC: 0.5 to 2 µg/mL (≈ 1.51 to 6.04 µM)
Streptococcus pneumoniae [8]; penicillin resistant (n = 18)
  MIC: 0.5 to 8 µg/mL (≈ 1.51 to 24.1 µM)
  MIC50: 0.5 µg/mL (≈ 1.51 µM)
  MIC90: 8 µg/mL (≈ 24.1 µM)
Streptococcus pneumoniae [8]; penicillin susceptible (n = 20)
  MIC: 0.06 to 2 µg/mL (≈ 0.181 to 6.04 µM)
Enterobacter spp.
  MIC50: ≤ 0.03 µg/mL
Escherichia coli; Escherichia coli
  MIC50: ≤ 0.03 µg/mL
Escherichia coli
  MIC Range: ≤0.03 to 64 µg/mL
Yersinia enterocolitica
  MIC: 0.015 to 0.25 mg/L (≈ 0.0453 to 0.754 µM)
